{"source": "patent US11305012B2", "about": "“Binding molecules specific for HER3 and uses thereof” (MedImmune, LLC, priority 2013, dated 2022)", "key": {"[1]": {"test_system": "human MCF-7 breast cancer xenograft", "experiment": "Orthotopic human MCF-7 breast cancer xenograft model", "assay_type": "in vivo, mouse", "conditions": "MCF-7 orthotopic, 10 mg/kg", "protocol": "Human MCF-7 breast cancer cells were maintained at 37° C. in a 5% CO2 incubator in Optimem medium containing glutamax, 2.4/L sodium bicarbonate, Hepes and 5% fetal bovine serum. Orthotopic xenografts were established by injecting 5×10^6 cells per mouse (suspended in 50% matrigel) into the mammary fat pad on the right flank of 4 to 6-week-old athymic nu/nu mice. Estrogen pellets (0.36 mg) were placed under the skin of the left flank 1-2 days before cell injection. […] Paclitaxel was administered intravenously at 10 mg per kilogram body weight. Caliper measurements were used to calculate tumor volumes using the formula: tumor volume=π÷6(length×width×width) • for tumors grown in mice."}, "[2]": {"test_system": "HER3, pHER3 and pAKT in SW620, SW480, Colo205, LOVO, HCT15, Caco-2", "experiment": "HRG-stimulated HER3 signaling in CRC tumor cell lines (Western)", "assay_type": "cell-based, human", "conditions": "antibodies 10 μg/mL, gefitinib 5 μM, HRG 50 ng/mL", "protocol": "In the presence of the HER3 ligand heregulin (HRG), HER3 heterodimerizes with EGFR or HER2, which leads to phosphorylation of HER3 and transmission of an oncogenic signal via phosphoinositide 3 kinase (PI3K) and protein kinase B (PKB), also known as AKT. A collection of CRC models were characterized to determine which receptor tyrosine kinase, EGFR or HER2, is the major driver of signaling through HER3. […] Briefly, cells were seeded into 24-well plates at a density of 1.5×10^5 cells per well. […] After 5-6 hours of incubation at 37° C., HRG was added at 50 ng/mL into one set of cells for 15 minutes at 37° C. All cells were then washed with cold PBS and lysed by the addition of 60 μL of 2×SDS (sodium dodecyl sulfate) sample buffer (Invitrogen). Lysates were transferred to 1.5 mL tubes and boiled for 5 minutes followed by chilling on ice for 2 minutes. Equal volumes (20 μL) of protein samples were resolved in NuPAGE Novex Bis-Tris gels (Invitrogen) before transfer to polyvinylidene fluoride (PVDF) membranes (Invitrogen). […] After washing, protein bands were detected on X-ray film by using SuperSignal West Pico Chemiluminescent Substrate (Pierce/Thermo Scientific)."}, "MDA-MB-361 xenografts": {"test_system": "MDA-MB-361 xenografts", "experiment": "Orthotopic human MDA-MB-361 breast cancer xenograft model", "assay_type": "in vivo, mouse", "conditions": "trastuzumab and rhuMAb 2C4 10 mg/kg, lapatinib 100 mg/kg twice daily, 2C2-YTE 30 mg/kg", "protocol": "(§1) Orthotopic xenografts were established by injecting 5×10^6 cells per mouse (suspended in 50% matrigel) into the mammary fat pad on the right flank of 4 to 6-week-old athymic nu/nu mice. Estrogen pellets (0.36 mg) were placed under the skin of the left flank 1-2 days before cell injection. […] Lapatinib was administered by oral gavaging at 100 mg per kilogram body weight. Caliper measurements were used to calculate tumor volumes using the formula: tumor volume=π÷6(length×width×width) • for tumors grown in mice."}, "BT-474 xenografts": {"test_system": "BT-474 xenografts", "experiment": "Orthotopic human BT-474 breast cancer xenograft model", "assay_type": "in vivo, mouse", "conditions": "BT-474 orthotopic, antibodies 30 mg/kg, lapatinib 100 mg/kg", "protocol": "as §1, with “1×10^7” for “5×10^6”"}, "[3]": {"test_system": "JIMT-1 breast cancer xenografts", "experiment": "Orthotopic human JIMT-1 breast cancer xenograft model", "assay_type": "in vivo, mouse", "protocol": "Orthotopic xenografts were established by injecting 5×10^6 cells per mouse (suspended in 50% matrigel) into the mammary fat pad on the right flank of 4 to 6-week-old athymic nu/nu mice. […] Treatment with antibodies were administered starting at day 8 post-implantation of JIMT-1 cells. […]"}, "[4]": {"conditions": "10 mpk (each), day 32 post-implantation of JIMT-1 cells, vs control IgG1"}}, "data": [{"compound": "CC(=O)O[C@H]1C(=O)[C@@]2(C)[C@H]([C@H](OC(=O)c3ccccc3)[C@]3(O)C[C@H](OC(=O)[C@H](O)[C@@H](NC(=O)c4ccccc4)c4ccccc4)C(C)=C1C3(C)C)[C@]1(OC(C)=O)CO[C@@H]1C[C@@H]2O", "note": "[Paclitaxel, paclitaxel, reference compound]", "values": [{"measurement": "anti-tumor efficacy (in words)", "setting": "[1]", "value": "clear anti-tumor efficacy"}]}, {"compound": "COc1cc2ncnc(Nc3ccc(F)c(Cl)c3)c2cc1OCCCN1CCOCC1", "note": "[gefitinib]", "values": [{"measurement": "effect on HRG ligand-dependent signaling (HER3, pHER3, pAKT; in words)", "setting": "[2]", "value": "no effect"}]}, {"compound": "CS(=O)(=O)CCNCc1ccc(-c2ccc3ncnc(Nc4ccc(OCc5cccc(F)c5)c(Cl)c4)c3c2)o1", "note": "[lapatinib, reference compound]", "values": [{"measurement": "anti-tumor efficacy (in words)", "setting": "MDA-MB-361 xenografts", "value": "showed anti-tumor efficacy"}, {"measurement": "anti-tumor efficacy (in words)", "setting": "BT-474 xenografts", "value": "tumor stasis"}]}, {"compound": "pertuzumab [RhuMAb 2C4, reference compound]", "values": [{"measurement": "% TGI", "setting": "[3]; [4]", "value": 13.64, "unit": "%"}, {"measurement": "% dTGI", "setting": "[3]; [4]", "value": 17.42, "unit": "%"}, {"measurement": "anti-tumor efficacy (in words)", "setting": "[3]; JIMT-1, 10 mg/kg (each)", "value": "did not result in any significant reduction"}, {"measurement": "effect on HRG ligand-dependent signaling (HER3, pHER3, pAKT; in words)", "setting": "[2]", "value": "inhibit HRG ligand-dependent signaling"}, {"measurement": "anti-tumor efficacy (in words)", "setting": "MDA-MB-361 xenografts", "value": "showed anti-tumor efficacy"}]}]}
